Assay results published in US11524951B2, “2-(2,4,5-substituted-anilino)pyrimidine compounds” (AstraZeneca AB, priority 2011, dated 2022).

Columns and labels:
Assay type in all cases: cell-based
[1] = target: T1, Exon19 deletion EGFR (Homo sapiens, UniProt P00533, DEL746-750); test: Exon19 deletion EGFR (activating single mutant) cellular phosphorylation assay; conditions: PC9 human lung cells (Exon 19 deletion EGFR); endogenous p-EGFR in cell lysates by ELISA; 2 h with compound; read-out: Assay 1 (IC50)
T1 construct: Assays to measure cellular phosphorylation of endogenous p-EGFR in cell lysates; endogenous in cells; host or cells: PC9 (human lung cell line)

[2] = target: T2, L858R/T790M EGFR (Homo sapiens, UniProt P00533, L858R/T790M); test: L858R/T790M EGFR (double mutant) cellular phosphorylation assay; conditions: NCI-H1975 human lung cells; endogenous p-EGFR in cell lysates by ELISA; 2 h with compound
T2 construct: Assays to measure cellular phosphorylation of endogenous p-EGFR in cell lysates; endogenous in cells; host or cells: NCI-H1975 (human lung cell line)

[3] = target: T3, Wild-type EGFR (Homo sapiens, UniProt P00533); test: Wild-type EGFR cellular phosphorylation assay; conditions: LoVo human colon cells; endogenous p-EGFR in cell lysates by ELISA; 2 h with compound, then stimulated 100 ng/ml for 10 minutes; read-out: Assay 3 (IC50)
T3 construct: Assays to measure cellular phosphorylation of endogenous p-EGFR in cell lysates; endogenous in cells; host or cells: LoVo (human colon cell line)
T3 sequence (P00533 25-1210): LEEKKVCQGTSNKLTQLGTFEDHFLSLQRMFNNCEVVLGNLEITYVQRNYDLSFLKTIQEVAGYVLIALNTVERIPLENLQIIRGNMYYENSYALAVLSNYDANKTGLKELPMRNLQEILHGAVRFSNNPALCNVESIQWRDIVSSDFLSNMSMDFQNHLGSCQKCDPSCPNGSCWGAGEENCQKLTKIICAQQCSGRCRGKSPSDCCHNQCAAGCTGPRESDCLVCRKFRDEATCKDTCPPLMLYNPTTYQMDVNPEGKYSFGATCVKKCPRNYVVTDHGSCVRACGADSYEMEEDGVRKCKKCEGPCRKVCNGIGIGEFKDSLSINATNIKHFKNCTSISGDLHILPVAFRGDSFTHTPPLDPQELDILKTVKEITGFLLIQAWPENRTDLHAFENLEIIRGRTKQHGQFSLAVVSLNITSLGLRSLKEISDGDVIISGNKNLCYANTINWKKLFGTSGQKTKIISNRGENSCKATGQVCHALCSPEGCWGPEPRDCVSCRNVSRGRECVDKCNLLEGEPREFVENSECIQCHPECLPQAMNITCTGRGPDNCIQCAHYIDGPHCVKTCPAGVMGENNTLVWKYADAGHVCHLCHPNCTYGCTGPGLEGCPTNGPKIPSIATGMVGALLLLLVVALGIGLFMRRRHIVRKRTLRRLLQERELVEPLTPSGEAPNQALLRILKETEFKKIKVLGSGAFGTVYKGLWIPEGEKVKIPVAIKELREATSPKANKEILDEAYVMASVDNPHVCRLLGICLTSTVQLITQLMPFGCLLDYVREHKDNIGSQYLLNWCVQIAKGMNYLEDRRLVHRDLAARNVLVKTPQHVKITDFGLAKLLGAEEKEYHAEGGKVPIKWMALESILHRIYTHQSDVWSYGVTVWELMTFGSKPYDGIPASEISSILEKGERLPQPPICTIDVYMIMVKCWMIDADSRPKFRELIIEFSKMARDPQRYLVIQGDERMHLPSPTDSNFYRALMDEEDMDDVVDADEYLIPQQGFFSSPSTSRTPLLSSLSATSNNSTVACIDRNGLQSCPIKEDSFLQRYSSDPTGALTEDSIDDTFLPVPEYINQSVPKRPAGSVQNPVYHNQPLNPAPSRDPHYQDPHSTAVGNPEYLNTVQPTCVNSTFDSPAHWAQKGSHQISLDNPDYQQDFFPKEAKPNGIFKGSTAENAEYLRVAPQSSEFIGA

T1 sequence (P00533 with tags, fused parts or gaps DEL746-750): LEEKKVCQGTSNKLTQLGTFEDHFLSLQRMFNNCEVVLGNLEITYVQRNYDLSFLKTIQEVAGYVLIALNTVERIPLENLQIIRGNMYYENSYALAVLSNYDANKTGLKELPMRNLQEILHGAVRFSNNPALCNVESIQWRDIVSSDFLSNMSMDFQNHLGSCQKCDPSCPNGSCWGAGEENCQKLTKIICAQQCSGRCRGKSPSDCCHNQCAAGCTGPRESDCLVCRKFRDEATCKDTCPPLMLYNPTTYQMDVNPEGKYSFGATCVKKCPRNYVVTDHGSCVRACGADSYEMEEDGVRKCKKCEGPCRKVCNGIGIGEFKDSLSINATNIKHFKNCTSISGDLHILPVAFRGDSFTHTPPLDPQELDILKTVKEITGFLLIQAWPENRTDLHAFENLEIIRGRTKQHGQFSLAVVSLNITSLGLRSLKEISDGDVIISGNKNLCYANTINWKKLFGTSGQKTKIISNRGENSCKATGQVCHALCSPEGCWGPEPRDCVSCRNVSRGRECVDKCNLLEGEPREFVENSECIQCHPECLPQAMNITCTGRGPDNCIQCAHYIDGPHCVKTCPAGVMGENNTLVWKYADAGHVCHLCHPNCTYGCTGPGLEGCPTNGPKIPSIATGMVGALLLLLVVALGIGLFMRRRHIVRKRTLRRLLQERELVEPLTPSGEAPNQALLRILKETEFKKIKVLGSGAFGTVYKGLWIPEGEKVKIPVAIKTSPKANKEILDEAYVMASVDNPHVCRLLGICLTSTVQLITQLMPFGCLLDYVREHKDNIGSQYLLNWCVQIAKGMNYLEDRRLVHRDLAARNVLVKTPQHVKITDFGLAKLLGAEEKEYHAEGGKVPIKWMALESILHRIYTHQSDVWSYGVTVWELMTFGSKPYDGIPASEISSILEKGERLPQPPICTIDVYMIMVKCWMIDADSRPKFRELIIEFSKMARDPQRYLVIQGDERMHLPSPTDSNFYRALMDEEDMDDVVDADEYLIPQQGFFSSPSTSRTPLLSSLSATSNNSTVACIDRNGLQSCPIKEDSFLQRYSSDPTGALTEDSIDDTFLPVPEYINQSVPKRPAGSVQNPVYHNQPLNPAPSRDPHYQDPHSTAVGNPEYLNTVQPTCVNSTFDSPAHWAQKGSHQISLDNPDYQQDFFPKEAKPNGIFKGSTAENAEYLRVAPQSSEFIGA
T2 sequence (P00533 25-1210 T790M/L858R): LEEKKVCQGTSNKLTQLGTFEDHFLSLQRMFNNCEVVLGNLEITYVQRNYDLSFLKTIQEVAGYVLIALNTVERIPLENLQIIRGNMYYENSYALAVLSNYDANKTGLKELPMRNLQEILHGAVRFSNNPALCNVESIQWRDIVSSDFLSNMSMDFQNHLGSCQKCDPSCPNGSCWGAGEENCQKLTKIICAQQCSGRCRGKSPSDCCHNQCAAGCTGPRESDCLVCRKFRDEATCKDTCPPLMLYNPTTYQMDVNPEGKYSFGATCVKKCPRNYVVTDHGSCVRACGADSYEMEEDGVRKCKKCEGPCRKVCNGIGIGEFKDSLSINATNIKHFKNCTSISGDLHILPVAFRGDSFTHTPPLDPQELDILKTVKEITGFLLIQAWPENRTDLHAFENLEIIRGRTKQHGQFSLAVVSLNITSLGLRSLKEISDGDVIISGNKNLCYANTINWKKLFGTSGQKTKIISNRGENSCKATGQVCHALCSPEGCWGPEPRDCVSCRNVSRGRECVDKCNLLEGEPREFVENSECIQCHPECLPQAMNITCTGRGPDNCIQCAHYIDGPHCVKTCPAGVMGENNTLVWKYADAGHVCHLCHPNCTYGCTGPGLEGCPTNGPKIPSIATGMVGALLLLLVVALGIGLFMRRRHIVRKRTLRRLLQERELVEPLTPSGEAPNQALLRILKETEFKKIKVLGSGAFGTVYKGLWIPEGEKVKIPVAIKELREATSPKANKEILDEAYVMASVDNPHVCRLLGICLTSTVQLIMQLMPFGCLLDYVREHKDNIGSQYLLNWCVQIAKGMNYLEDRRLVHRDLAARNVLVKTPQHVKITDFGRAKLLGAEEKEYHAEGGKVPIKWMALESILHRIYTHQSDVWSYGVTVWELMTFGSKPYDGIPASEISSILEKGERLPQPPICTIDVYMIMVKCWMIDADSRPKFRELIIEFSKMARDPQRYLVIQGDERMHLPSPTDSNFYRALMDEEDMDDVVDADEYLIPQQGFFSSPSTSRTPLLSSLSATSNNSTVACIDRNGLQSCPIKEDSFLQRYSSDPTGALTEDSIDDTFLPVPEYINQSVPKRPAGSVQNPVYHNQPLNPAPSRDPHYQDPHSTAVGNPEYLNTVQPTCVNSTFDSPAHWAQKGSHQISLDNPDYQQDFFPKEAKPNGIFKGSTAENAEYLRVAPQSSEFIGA

IC50 [1] | IC50 [2] | IC50 [3] | SMILES
1.29 nM | 1.5 nM | 41.2 nM | C=CC(=O)Nc1cc(Nc2ncc(Cl)c(-c3c[nH]c4ccccc34)n2)c(OC)cc1C1=CCN(C)CC1 [Example 2, N-(5-{[5-Chloro-4-(1H-indol-3-yl)pyrimidin-2-yl]amino}-4-methoxy-2-[1-methyl-3,6-dihydro-2H-pyridin-4-yl]phenyl)prop-2-enamide]
1.33 nM | 0.886 nM | 35.7 nM | C=CC(=O)Nc1cc(Nc2ncc(Cl)c(-c3c[nH]c4ccccc34)n2)c(OC)cc1N1CC[C@@H](N(C)C)C1 [Example 24, N-(5-{[5-Chloro-4-(1H-indol-3-yl)pyrimidin-2-yl]amino}-2-{(3R)-3-dimethylaminopyrrolidin-1-yl}-4-methoxyphenyl)prop-2-enamide]
